For experiment [1], the system named is platelet aggregation (ADP). In words: Platelet aggregation inhibitory activity, ADP-induced (Born's turbidimetry, rabbit PRP). The class given is cell-based, male rabbit (NZW). As to conditions: Oryctolagus cuniculus, ADP 7.5 μM final, 37° C. How it is done:
(§1) Pharmacological Experiment 1 Platelet aggregation inhibitory activity
(§2) (1) Preparation of platelet rich plasma (PRP):
(§3) The blood was collected from the carotid of a male rabbit without anesthesia (NZW species, body weight; 2-3 kg) with mixing thereof with 1/10 volume of citric acid. The blood thus obtained was separated and put into plastic test tubes (each about 7 ml), and centrifuged at 900 rpm for 15 minutes at room temperature to give a turbid supernatant as a platelet rich plasma (PRP). The residue from which PRP is separated was centrifuged at 3000 rpm for 10 minutes, and the supernatant was collected as a platelet poor plasma (PPP). The PRP was diluted with PPP so that the concentration thereof was adjusted to […], and used in the platelet aggregation inhibitory activity test.
(§4) (2) Method for platelet aggregation inhibitory activity test:
(§5) The platelet aggregation was tested according to Born's turbidimetry. That is, a test compound was dissolved in dimethylformamide, and the test compound solution (1 μl) thus obtained was put into a cuvette, and thereto was further added PRP (200 μl). Immediately thereafter, the cuvette was set into an apparatus for determining platelet aggregation activity, PAM-8T (manufactured by Mevanix Inc.), and the mixture was incubated at 37° C. Precisely three minutes thereafter, a solution of adenosine diphosphate (ADP, PA test ADP [MCM], purchased by MC Medical Ltd.) in physiological saline solution or a collagen solution (Collagenreagent Horm, purchased by MC Medical Ltd.) (20 μl) was added thereto. The final concentration of the ADP solution or the collagen solution was 7.5 μM or 20 μg/ml, respectively.
(§6) The maximum aggregation rate and the aggregation inhibitory rate were calculated by the following equations. [formula]
(§7) IC50, which is a concentration of the test compound being required to inhibit the platelet aggregation reaction by 50%, was determined from the aggregation inhibitory rates at two different concentrations of a test compound.

Experiment [2] concerns platelet aggregation (collagen). Put plainly: Platelet aggregation inhibitory activity, collagen-induced (Born's turbidimetry, rabbit PRP). The class given is cell-based, male rabbit (NZW). As to conditions: Oryctolagus cuniculus, collagen 20 μg/ml final, 37° C. How it is done: as §1, §2, §3, §4, §5, §6, §7
The subject of experiment [3] is left common carotid artery injured by balloon. In words: Intima thickening inhibitory activity after balloon injury (3H-thymidine in carotid artery). As to conditions: Rattus norvegicus, oral. In kind it is in vivo, male SD rats. How it is done:
Pharmacological Experiment 3 Intima thickening inhibitory activity
Male SD rats (6-week old) were separated into groups (8 rats per each group) and numbered. A test compound solution, which was prepared by suspending a test compound in 1% hydroxypropylmethyl cellulose 2910 TC-5 (HPMC, manufactured by Shin-etsu Chemical Co., Ltd.) was orally administered to the rats. In the control group, 1% HPMC solution was orally administered instead of the test compound solution. One or two hours thereafter, two french balloon catheters (manufactured by Baxter Travenol Inc.) were inserted into the left common carotid artery of the rats, and the artery was injured by abrading five times with a balloon. The day of balloon abrasion was considered as Day 0. On the following day (Day 1), a test compound was orally administered to the rats two times a day (in the morning and in the evening). On Day 2, 1.48 MBq/ml of ^3 H-thymidine (dose: 5 ml/kg, manufactured by NEN Research Products, Ltd.) was injected at the tail vein of the rats about one hour after the administration of the test compound so that the time after the balloon injury was fixed to the same in each rat. Precisely 45 minutes after the injection of ^3 H-thymidine at the tail veil, the common carotid artery of the rats was taken out.
In the test compound-treated group, only the left common carotid artery which was injured by balloon was taken out, and in the control group, both the left and right common carotid arteries were taken out. The common carotid artery thus obtained was cut to pieces of exact 1 cm long, and the unnecessary portions such as the outer membrane or the nerves were completely removed. The common carotid artery was put into a glass vial, and thereto was added a 0.5 N sodium hydroxide (0.5 ml), and the mixture was incubated at 37° C. overnight to be solubilized. The mixture was neutralized with a 5 N hydrochloric acid (0.05 ml), and thereto was further added an aqueous hydrogen peroxide solution (0.1 ml). Aquasol II (10 ml, manufactured by Du Pont Co.) was added thereto, and the mixture was well stirred and then allowed to stand for 30 minutes. The radioactivity of tritium in the mixture was counted by liquid scintillation counter. The intima thickening inhibitory activity of the test compound was calculated by the following equation. [formula] L (c): The amount of tritium in the left common carotid artery in the control group (dpm)
R (c): The amount of tritium in the right common carotid artery in the control group (dpm)
L: The amount of tritium in the left common carotid artery in the test compound-treated group (dpm)

Experiment [4] has as its system death induced by pulmonary infarction in mice. Put plainly: Antithrombotic activity: inhibition of death by collagen-induced pulmonary infarction in mice. The class given is in vivo, male ICR mice. As to conditions: Mus musculus, 1 h; 30 mg/kg oral, 10 minutes before i.v. collagen; lethality in an hour; read-out: Pulmonary infarction inhibitory activity. An excerpt: Pharmacological Experiment 2 Antithrombotic activity
Antithrombotic activity of the test compounds was estimated by an inhibitory activity of the test compound by oral administration against death induced by pulmonary infarction in mice which was introduced by intravenous administration of collagen (pulmonary infarction inhibitory activity).
Male ICR mice (5-week old, body weight; about 25 g) was fasted overnight, and separated into groups (15 mice per each group) and numbered. A test compound solution, which was prepared by suspending a test compound in 1% hydroxypropylmethyl cellulose 2910 TC-5 (HPMC, manufactured by Shin-etsu Chemical Co., Ltd.), was orally administered to the mice, and 10 minutes thereafter, a collagen solution (the method for preparation thereof and a dose thereof are explained hereafter) was injected to the mice at the tail vein at the constant rate. The lethality of the mice was determined by the number of mice which were died in an hour after the administration of collagen solution. The antithrombotic activity of the test compound was estimated by the inhibitory rate (%) of the lethality of the mice. The collagen solution was prepared by dissolving collagen (Type III, manufactured by Sigma Chemical Ltd.) in 0.05 M acetic acid solution containing 2 mM calcium chloride and 5% glucose at 4° C. so that the final concentration of collagen was adjusted to 2.5 mg/ml, and then the pH value thereof was adjusted to pH 7.4 with sodium hydroxide the day before the experiment. The collagen solution was incubated with stirring at 37° C. for two hours, and then further stirred at room temperature overnight. Just before the experiment, the pH value of the collagen solution was adjusted again to pH 7.4. The amount of the collagen solution which was injected at the tail vein was previously determined so that the lethality by pulmonary infarction induced thereby became about 75%.

For experiment [5], the target named is T1, cGMP-inhibited cAMP phosphodiesterase (PDE3) (Homo sapiens, UniProt Q14432).
T1 construct: made in house; host or cells: insect cell Sf9, baculovirus expression system
T1 sequence (Q14432 whole entry): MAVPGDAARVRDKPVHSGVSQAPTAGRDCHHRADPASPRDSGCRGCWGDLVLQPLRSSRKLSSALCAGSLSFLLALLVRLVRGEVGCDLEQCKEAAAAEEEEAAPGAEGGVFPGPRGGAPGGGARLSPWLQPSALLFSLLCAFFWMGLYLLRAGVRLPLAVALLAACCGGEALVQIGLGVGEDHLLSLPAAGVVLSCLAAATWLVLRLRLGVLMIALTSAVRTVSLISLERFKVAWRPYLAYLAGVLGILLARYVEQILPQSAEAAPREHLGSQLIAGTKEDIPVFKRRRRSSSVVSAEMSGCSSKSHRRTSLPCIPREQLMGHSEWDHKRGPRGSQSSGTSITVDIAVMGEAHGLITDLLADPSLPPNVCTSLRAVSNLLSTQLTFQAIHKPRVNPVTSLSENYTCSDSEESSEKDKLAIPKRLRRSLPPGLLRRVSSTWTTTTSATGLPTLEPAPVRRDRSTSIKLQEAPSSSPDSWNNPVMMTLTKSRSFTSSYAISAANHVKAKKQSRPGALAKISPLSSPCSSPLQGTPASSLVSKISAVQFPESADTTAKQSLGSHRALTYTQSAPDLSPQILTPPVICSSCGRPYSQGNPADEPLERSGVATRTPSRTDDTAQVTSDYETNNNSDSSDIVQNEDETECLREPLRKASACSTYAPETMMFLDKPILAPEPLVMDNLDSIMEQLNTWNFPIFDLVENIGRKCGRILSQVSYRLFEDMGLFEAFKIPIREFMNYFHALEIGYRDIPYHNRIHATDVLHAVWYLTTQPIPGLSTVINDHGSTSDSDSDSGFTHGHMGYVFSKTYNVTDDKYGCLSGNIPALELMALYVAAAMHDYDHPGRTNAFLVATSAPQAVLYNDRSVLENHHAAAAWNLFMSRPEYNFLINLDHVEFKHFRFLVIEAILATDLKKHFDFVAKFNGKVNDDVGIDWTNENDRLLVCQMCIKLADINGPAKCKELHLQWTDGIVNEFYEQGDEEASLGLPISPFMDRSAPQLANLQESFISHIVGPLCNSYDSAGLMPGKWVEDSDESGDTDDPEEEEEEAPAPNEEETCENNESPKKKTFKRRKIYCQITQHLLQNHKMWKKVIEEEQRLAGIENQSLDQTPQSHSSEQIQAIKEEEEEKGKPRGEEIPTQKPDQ
Put plainly: cGMP-inhibited cAMP phosphodiesterase (PDE3) inhibitory activity. In kind it is biochemical. As to conditions: 0.4 μM [8-3H]cAMP, pH 8.0, 30° C., 15 minutes; recombinant enzyme from Sf9; read-out: PDE inhibitory activity IC50.

As for `O=C(NCCCOc1ccc2[nH]c(=O)ccc2c1)N(C1CC1)[C@@H]1CCCC[C@H]1O` (relative stereo) [Ex. 6, 6-{3-[3-(trans-2-hydroxycyclohexyl)-3-cyclopropylureido]propoxy}carbostyril], the IC50 turned out to be 1800 nM in experiment [1] and 1900 nM in experiment [2]. In addition, the inhibition in vivo at 10 mg/kg in experiment [3] (dose 10 mg/kg) is 31.4%. Besides, in experiment [4], the inhibition in vivo at 30 mg/kg was determined as 100%.

Consider `CC(=O)O[C@@H]1CCCC[C@H]1N(C(=O)NCCCOc1ccc2[nH]c(=O)ccc2c1)C1CC1` (relative stereo) [Ex. 7, 6-{3-[3-(trans-2-acetyloxycyclohexyl)-3-cyclopropylureide]propoxy}carbostyril], for which the IC50 in experiment [1] was found to be 18200 nM; in experiment [2] it was 2100 nM. For the same compound, the inhibition in vivo at 30 mg/kg in experiment [3] was found to be 15.2%; in experiment [4], 67%.

Turning to `O=C(NCCCOc1ccc2[nH]c(=O)ccc2c1)N(C1CCCCCC1)[C@@H]1CCCC[C@H]1O` (relative stereo) [Ex. 18], the IC50 worked out at 120 nM in experiment [1] and 30 nM in experiment [2]. The figures for the inhibition in vivo at 30 mg/kg in experiment [3] and in experiment [4] were 19% and 69%, respectively.

Take `O=C(NCCCOc1ccc2[nH]c(=O)ccc2c1)N(C1CCCCCCC1)[C@@H]1CCCC[C@H]1O` (relative stereo) [Ex. 24]: the figures for the IC50 in experiment [1], in experiment [2] and in experiment [5] were 80 nM, 30 nM and 0.647 nM, respectively. The inhibition in vivo at 30 mg/kg in experiment [4] is 100%.

`O=C1CCc2cc(OCCCNC(=O)N(C3CC3)[C@@H]3CCCC[C@H]3O)cc(F)c2N1` (relative stereo) [Ex. 25]: the IC50 in experiment [1] turned out to be 4650 nM; in experiment [2], 3900 nM. The inhibition in vivo at 30 mg/kg in experiment [4] was determined as 100%.

`COc1cc(OCCCNC(=O)N(C2CC2)[C@@H]2CCCC[C@H]2O)cc2ccc(=O)[nH]c12` (relative stereo) [Ex. 27]: the IC50 in experiment [1] was 31600 nM; in experiment [2], 31600 nM; in experiment [5], 2180 nM. Also, in experiment [4], the inhibition in vivo at 30 mg/kg stood at 80%.

As to `O=C(NCCOc1ccc2[nH]c(=O)ccc2c1)N(C1CC1)[C@@H]1CCCC[C@H]1O` (relative stereo) [Ex. 30], the IC50 was 3670 nM in experiment [1] and 2940 nM in experiment [2]. In addition, in experiment [4], the inhibition in vivo at 30 mg/kg was found to be 100%.

On to `CCC(CN(C(=O)NCCCOc1ccc2[nH]c(=O)ccc2c1)C1CCCCC1)OC(C)=O` (stereo not drawn) [Ex. 11], for which the IC50 is 600 nM in experiment [1] and 2100 nM in experiment [2]. The values for the inhibition in vivo at 30 mg/kg in experiment [3] and in experiment [4] were 33% and 80%, respectively.

For `CCC(O)CN(C(=O)N(C)CCCOc1ccc2[nH]c(=O)ccc2c1)C1CCCCC1` (stereo not drawn) [Ex. 13, 6-{3-[1-methyl-3-cyclohexyl-3-(2-hydroxybutyl)ureido]propoxy}carbostyril], the IC50 turned out to be 2100 nM in experiment [1] and 2000 nM in experiment [2]. The figures for the inhibition in vivo at 30 mg/kg in experiment [3] and in experiment [4] were 16.6% and 58%, respectively.

For the compound `CCC(CN(C(=O)N(C)CCCOc1ccc2[nH]c(=O)ccc2c1)C1CCCCC1)OC(C)=O` (stereo not drawn) [Ex. 14, 6-{3-[1-methyl-3-cyclohexyl-3-(2-acetyloxybutyl)ureido]propoxy}carbostyril], the figures for the IC50 in experiment [1] and in experiment [2] were 1500 nM and 2200 nM, respectively. In addition, the results for the inhibition in vivo at 30 mg/kg in experiment [3] and in experiment [4] were 15.7% and 66%, respectively.

As for `CCN(CCCOc1ccc2[nH]c(=O)ccc2c1)C(=O)N(C)C1CCCCC1` [Ex. 15], the IC50 in experiment [1] was 15200 nM; in experiment [2] it was 16100 nM. Further, the inhibition in vivo at 30 mg/kg in experiment [3] was 11.9%; in experiment [4], 86%.

For the compound `C=CCN(CCCOc1ccc2[nH]c(=O)ccc2c1)C(=O)N(C)C1CCCCC1` [Ex. 16, 6-[3-(3-Cyclohexyl-3-methyl-1-allylureido)propoxy]carbostyril], the IC50 in experiment [1] came to 4600 nM; in experiment [2] it was 20000 nM. Moreover, the inhibition in vivo at 30 mg/kg was 33.3% in experiment [3] and 77% in experiment [4].

On to `CCOC(CC)CN(C(=O)NCCCOc1ccc2[nH]c(=O)ccc2c1)C1CCCCC1` (stereo not drawn) [Ex. 19], for which the IC50 in experiment [1] is 180 nM; in experiment [2], 590 nM. In addition, the inhibition in vivo at 30 mg/kg in experiment [3] was 23.4%; in experiment [4], 84%.

Regarding `CCC(CN(C(=O)NCCCOc1ccc2[nH]c(=O)ccc2c1)C1CCCCC1)OCc1ccccc1` (stereo not drawn) [Ex. 20], the IC50 is 220 nM in experiment [1] and 290 nM in experiment [2]. Besides, in experiment [4], the inhibition in vivo at 30 mg/kg is 66%.

Take `CC(O)CN(CCCOc1ccc2[nH]c(=O)ccc2c1)C(=O)N(C)C1CCCCC1` (stereo not drawn) [Ex. 21]: the IC50 in experiment [1] is 2080 nM; in experiment [2] it was 3250 nM. The inhibition in vivo at 30 mg/kg in experiment [4] came to 59%.

As for `CN(C(=O)N(CCCO)CCCOc1ccc2[nH]c(=O)ccc2c1)C1CCCCC1` [Ex. 22], the values for the IC50 in experiment [1] and in experiment [2] were 1310 nM and 2800 nM, respectively. Moreover, the inhibition in vivo at 30 mg/kg in experiment [4] is 69%.

As for `CCCN(CCCOc1ccc2[nH]c(=O)ccc2c1)C(=O)N(C)C1CCCCC1` [Ex. 23, 6-[3-(3-cyclohexyl-3-methyl-1-propylureido)propoxy]carbostyril], the 50% inhibitory concentration (IC50) amounted to 13400 nM in experiment [1] and 2510 nM in experiment [2]. The inhibition in vivo at 30 mg/kg in experiment [4] stood at 90%.

With `O=C(NCCCOc1ccc2[nH]c(=O)ccc2c1)NN(C1CCCCC1)C1CC1` [Ex. 29], the IC50 in experiment [1] is 10 nM; in experiment [2] it was 30 nM. For the same compound, the inhibition in vivo at 30 mg/kg was found to be 29.3% in experiment [3] and 91% in experiment [4].

For the compound `O=C(NCCCCOc1ccc2[nH]c(=O)ccc2c1)N(C1CC1)[C@@H]1CCCC[C@H]1O` [Ex. 31], the IC50 worked out at 15700 nM in experiment [1] and 2570 nM in experiment [2]. Besides, in experiment [4], the inhibition in vivo at 30 mg/kg turned out to be 48%.
